What was measured:
Assay in all cases: biochemical
[1] = biological target: T1, panel of 374 wild-type kinases (Homo sapiens, UniProt P14616); conditions: read-out: % Enzyme Activity (relative to DMSO controls), IRR/INSRR
T1 construct: purchased Reaction Biology Corporation

[2] = biological target: T2, panel of 374 wild-type kinases (Homo sapiens, UniProt P07332); conditions: read-out: % Enzyme Activity (relative to DMSO controls), FES/FPS
T2 construct: purchased Reaction Biology Corporation

[3] = biological target: T3, panel of 374 wild-type kinases (Homo sapiens, UniProt P06213); conditions: read-out: % Enzyme Activity (relative to DMSO controls), IR
T3 construct: purchased Reaction Biology Corporation

[4] = biological target: T4, panel of 374 wild-type kinases (Homo sapiens, UniProt Q14289); conditions: read-out: % Enzyme Activity (relative to DMSO controls), kinase PYK2
T4 construct: purchased Reaction Biology Corporation
T4 sequence (Q14289 whole entry): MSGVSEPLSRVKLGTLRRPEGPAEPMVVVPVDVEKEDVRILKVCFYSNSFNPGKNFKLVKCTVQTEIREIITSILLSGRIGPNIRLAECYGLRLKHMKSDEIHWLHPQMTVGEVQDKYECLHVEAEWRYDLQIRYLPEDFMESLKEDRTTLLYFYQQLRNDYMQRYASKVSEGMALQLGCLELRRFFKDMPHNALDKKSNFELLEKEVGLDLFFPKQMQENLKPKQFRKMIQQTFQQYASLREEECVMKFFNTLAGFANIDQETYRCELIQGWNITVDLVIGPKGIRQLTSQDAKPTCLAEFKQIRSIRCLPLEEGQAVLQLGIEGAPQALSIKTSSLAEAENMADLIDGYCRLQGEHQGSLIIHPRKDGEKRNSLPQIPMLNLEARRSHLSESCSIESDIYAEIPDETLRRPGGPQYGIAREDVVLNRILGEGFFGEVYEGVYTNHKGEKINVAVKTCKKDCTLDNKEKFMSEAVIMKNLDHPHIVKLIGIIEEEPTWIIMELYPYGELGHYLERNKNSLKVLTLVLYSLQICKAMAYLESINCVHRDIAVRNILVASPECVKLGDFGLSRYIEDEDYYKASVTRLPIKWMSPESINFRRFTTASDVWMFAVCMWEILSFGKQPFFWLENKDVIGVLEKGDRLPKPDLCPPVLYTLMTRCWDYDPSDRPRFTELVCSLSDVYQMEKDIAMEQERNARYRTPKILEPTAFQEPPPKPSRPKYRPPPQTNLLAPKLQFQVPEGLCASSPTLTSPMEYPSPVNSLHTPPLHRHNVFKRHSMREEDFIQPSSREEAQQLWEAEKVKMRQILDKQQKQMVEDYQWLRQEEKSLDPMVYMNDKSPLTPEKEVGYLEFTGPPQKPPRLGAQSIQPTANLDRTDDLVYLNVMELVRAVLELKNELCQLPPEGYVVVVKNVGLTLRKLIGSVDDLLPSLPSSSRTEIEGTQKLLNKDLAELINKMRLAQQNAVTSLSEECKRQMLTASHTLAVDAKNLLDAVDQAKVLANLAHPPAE

[5] = biological target: T5, panel of 374 wild-type kinases (Homo sapiens, UniProt Q9UL54); conditions: read-out: % Enzyme Activity (relative to DMSO controls), kinase TAOK2/TAO1
T5 construct: purchased Reaction Biology Corporation
T5 sequence (Q9UL54 1-1235): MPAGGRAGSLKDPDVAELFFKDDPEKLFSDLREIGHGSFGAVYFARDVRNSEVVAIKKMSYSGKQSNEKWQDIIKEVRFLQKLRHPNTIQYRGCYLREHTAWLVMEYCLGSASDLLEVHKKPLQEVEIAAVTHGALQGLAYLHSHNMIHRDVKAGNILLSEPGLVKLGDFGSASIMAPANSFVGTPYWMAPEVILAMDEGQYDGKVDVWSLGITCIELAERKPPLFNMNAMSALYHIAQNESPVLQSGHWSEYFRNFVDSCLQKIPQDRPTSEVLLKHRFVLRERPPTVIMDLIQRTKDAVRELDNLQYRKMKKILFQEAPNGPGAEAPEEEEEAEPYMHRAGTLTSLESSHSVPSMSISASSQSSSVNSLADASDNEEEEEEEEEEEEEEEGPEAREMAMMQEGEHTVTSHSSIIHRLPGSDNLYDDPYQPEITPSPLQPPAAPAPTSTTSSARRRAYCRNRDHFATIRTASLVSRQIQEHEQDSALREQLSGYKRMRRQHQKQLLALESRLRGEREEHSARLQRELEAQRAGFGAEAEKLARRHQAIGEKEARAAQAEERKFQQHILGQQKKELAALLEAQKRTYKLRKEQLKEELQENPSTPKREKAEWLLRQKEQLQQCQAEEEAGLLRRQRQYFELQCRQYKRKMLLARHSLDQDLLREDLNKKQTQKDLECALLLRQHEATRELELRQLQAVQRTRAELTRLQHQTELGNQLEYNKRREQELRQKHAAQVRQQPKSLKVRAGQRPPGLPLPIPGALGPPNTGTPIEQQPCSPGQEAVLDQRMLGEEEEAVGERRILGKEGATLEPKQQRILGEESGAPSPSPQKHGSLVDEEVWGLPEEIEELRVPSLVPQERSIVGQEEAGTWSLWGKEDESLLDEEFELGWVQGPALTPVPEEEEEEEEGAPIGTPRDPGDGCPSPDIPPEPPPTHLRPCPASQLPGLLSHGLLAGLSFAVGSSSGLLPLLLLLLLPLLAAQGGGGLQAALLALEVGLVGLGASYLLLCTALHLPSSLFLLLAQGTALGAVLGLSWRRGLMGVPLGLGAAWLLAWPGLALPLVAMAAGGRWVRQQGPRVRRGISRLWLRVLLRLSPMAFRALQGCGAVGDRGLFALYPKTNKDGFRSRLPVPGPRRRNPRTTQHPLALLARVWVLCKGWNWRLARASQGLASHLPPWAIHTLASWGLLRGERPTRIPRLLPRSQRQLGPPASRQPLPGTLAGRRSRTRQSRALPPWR

[6] = biological target: T6, panel of 374 wild-type kinases (Homo sapiens, UniProt Q9UM73); conditions: read-out: % Enzyme Activity (relative to DMSO controls), ALK
T6 construct: purchased Reaction Biology Corporation

[7] = biological target: T7, panel of 374 wild-type kinases (Homo sapiens, UniProt Q9H3Y6); conditions: read-out: % Enzyme Activity (relative to DMSO controls), kinase SRMS
T7 construct: purchased Reaction Biology Corporation
T7 sequence (Q9H3Y6 whole entry): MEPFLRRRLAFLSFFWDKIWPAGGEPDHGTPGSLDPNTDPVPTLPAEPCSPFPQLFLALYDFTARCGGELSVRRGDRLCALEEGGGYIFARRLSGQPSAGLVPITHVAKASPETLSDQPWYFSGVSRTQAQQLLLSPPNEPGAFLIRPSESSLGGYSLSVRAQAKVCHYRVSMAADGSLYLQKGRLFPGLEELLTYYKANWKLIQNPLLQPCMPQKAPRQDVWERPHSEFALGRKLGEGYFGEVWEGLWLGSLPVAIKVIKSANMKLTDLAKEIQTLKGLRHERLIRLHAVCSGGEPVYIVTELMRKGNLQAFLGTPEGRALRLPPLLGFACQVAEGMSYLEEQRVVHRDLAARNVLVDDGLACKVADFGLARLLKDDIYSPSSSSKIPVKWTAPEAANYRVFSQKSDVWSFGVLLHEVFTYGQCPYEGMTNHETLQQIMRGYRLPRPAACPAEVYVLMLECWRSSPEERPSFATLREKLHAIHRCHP

[8] = biological target: T8, panel of 374 wild-type kinases (Homo sapiens, UniProt Q9Y243); conditions: read-out: % Enzyme Activity (relative to DMSO controls), AKT3
T8 construct: purchased Reaction Biology Corporation
T8 sequence (Q9Y243 whole entry): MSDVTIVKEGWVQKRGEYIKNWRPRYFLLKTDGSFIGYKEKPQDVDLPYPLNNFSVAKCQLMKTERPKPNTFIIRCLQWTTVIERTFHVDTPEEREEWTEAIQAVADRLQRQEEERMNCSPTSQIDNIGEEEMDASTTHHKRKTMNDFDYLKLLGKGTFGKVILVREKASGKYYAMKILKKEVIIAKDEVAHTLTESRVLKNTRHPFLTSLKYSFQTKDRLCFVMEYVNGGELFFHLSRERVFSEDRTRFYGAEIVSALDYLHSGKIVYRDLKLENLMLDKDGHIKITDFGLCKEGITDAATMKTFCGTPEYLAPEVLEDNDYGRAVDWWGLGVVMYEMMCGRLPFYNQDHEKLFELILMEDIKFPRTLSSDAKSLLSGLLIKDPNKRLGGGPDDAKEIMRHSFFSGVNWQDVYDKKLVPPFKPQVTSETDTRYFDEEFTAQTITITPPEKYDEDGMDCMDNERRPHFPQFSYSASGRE

[9] = biological target: T9, panel of 374 wild-type kinases (Homo sapiens, UniProt Q96PN8); conditions: read-out: % Enzyme Activity (relative to DMSO controls), kinase TSSK3/STK22C
T9 construct: purchased Reaction Biology Corporation
T9 sequence (Q96PN8 1-268): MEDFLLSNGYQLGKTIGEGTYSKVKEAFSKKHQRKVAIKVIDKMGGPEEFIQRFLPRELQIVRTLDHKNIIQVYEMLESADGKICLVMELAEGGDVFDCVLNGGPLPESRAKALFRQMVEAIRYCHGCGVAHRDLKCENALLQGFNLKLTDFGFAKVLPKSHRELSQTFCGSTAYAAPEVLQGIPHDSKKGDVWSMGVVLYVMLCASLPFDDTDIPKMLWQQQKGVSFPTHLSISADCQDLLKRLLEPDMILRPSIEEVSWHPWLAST

[10] = biological target: T10, panel of 374 wild-type kinases (Homo sapiens, UniProt Q16512); conditions: read-out: % Enzyme Activity (relative to DMSO controls), kinase PKN1/PRK1
T10 construct: purchased Reaction Biology Corporation
T10 sequence (Q16512 whole entry): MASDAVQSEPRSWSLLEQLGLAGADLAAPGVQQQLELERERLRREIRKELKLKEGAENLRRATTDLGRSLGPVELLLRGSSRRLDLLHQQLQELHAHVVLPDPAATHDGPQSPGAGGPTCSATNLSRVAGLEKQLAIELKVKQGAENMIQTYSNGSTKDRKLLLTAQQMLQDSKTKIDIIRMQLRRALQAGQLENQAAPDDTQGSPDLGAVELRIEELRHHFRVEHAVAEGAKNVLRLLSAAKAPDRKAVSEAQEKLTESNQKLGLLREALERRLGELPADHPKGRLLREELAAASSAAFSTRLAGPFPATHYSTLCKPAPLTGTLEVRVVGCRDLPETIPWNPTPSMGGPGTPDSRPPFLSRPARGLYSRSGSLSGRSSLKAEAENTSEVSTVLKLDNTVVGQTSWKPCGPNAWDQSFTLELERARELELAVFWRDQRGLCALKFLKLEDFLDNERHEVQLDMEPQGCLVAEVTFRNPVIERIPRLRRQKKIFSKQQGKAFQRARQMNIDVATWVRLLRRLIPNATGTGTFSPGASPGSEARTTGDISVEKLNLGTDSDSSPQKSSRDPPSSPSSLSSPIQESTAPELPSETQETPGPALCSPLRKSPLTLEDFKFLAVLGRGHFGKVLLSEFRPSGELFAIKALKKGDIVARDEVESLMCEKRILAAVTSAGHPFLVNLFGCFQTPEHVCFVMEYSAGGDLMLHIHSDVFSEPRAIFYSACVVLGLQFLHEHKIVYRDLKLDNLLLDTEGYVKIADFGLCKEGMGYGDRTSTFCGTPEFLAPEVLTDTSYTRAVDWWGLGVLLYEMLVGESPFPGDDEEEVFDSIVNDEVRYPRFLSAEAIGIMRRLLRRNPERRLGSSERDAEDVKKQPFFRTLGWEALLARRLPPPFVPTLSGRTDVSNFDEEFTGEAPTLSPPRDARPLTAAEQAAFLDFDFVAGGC

[11] = biological target: T11, panel of 374 wild-type kinases (Homo sapiens, UniProt Q5TCY1); conditions: kinase TTBK1, read-out: % Enzyme Activity (relative to DMSO controls)
T11 construct: purchased Reaction Biology Corporation

[12] = biological target: T12, panel of 374 wild-type kinases (Homo sapiens, UniProt Q8N752); conditions: read-out: % Enzyme Activity (relative to DMSO controls), CK1a1L
T12 construct: purchased Reaction Biology Corporation
T12 sequence (Q8N752 1-337): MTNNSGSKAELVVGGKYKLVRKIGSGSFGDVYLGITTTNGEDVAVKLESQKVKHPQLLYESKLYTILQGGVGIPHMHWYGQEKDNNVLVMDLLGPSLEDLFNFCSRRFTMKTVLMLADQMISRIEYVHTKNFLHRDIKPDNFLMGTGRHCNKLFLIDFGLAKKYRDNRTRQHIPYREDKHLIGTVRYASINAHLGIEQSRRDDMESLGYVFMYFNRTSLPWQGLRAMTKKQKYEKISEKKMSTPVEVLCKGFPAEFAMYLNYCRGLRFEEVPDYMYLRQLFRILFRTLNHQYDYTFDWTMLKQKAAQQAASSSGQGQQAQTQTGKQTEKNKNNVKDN

T2 sequence (P07332 whole entry): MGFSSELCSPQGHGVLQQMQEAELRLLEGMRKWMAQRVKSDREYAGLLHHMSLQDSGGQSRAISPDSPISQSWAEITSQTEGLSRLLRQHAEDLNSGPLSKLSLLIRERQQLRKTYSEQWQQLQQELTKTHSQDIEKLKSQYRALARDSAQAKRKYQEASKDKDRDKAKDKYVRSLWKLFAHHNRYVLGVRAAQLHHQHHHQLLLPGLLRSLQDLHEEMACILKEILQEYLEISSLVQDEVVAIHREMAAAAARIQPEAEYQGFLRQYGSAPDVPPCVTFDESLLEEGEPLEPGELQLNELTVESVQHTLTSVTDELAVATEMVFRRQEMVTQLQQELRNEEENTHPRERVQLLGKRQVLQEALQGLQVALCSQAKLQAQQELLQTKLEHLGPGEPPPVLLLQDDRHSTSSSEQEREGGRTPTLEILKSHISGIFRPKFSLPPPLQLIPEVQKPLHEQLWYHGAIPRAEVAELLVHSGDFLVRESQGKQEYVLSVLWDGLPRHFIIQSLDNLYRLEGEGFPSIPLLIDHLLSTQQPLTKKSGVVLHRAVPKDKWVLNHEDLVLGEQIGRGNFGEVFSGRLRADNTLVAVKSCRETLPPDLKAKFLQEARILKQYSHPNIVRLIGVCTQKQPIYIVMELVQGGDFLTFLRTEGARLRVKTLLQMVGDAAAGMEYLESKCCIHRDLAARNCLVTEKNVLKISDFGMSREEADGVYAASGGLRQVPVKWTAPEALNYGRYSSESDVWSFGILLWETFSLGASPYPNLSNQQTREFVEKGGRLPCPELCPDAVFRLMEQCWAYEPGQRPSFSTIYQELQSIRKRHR
T1 sequence (P14616 27-1297): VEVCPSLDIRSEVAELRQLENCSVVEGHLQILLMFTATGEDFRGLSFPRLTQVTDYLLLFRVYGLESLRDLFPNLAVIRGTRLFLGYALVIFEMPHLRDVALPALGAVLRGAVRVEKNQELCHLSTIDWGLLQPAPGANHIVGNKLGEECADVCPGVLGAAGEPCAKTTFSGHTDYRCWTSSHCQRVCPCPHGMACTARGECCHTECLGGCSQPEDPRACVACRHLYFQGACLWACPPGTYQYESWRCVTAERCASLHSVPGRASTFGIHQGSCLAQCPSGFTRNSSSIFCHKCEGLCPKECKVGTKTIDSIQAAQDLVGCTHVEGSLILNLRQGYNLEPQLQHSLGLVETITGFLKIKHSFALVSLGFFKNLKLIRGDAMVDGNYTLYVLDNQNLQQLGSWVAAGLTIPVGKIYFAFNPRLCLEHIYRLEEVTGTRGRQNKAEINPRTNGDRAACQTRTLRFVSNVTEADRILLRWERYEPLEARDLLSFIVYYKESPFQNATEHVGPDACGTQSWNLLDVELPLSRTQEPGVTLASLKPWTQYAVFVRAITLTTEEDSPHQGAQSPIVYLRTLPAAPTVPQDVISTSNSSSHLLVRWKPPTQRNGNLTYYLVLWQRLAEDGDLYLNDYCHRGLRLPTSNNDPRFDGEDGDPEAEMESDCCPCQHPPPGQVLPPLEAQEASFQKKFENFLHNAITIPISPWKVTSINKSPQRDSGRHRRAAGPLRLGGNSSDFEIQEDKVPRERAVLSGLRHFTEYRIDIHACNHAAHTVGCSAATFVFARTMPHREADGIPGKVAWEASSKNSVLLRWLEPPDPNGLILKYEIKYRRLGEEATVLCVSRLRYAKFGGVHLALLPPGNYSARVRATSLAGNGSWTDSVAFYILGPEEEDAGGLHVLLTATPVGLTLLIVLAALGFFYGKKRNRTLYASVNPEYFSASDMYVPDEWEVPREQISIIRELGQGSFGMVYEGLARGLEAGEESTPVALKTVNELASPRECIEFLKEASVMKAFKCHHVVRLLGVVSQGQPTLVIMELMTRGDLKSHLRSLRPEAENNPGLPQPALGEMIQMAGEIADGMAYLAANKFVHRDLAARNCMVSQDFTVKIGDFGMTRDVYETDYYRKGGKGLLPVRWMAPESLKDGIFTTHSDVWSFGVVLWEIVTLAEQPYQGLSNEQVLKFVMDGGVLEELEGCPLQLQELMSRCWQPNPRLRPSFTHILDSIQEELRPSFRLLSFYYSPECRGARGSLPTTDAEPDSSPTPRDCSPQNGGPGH

Row | SMILES | remaining activity at 5 µM [1] [%] | remaining activity at 5 µM [2] [%] | remaining activity at 5 µM [3] [%] | remaining activity at 5 µM [4] [%] | remaining activity at 5 µM [5] [%] | remaining activity at 5 µM [6] [%] | remaining activity at 5 µM [7] [%] | remaining activity at 5 µM [8] [%] | remaining activity at 5 µM [9] [%] | remaining activity at 5 µM [10] [%] | remaining activity at 5 µM [11] [%] | remaining activity at 5 µM [12] [%] | also measured
1 | O=C(Nc1cnn(-c2csc(C(=O)NC3COC3)c2)c1)Nc1ccccc1Cl [Compound 17, 4-(4-(3-(2-chlorophenyl)ureido)-1H-pyrazol-1-yl)-N-(oxetan-3-yl)thiophene-2-carboxamide] | 96 | 99.3 | 98.4 | 93.5 | 101 | 101 | 99.8 | 87.3 | 97.7 | 110 | 97.2 | 109 | 
2 | Cc1sc(C(=O)NC2COC2)cc1-n1cc(NC(=O)Nc2c(F)cccc2Cl)cn1 [Compound 27, 4-(4-(3-(2-chloro-6-fluorophenyl)ureido)-1H-pyrazol-1-yl)-5-methyl-N-(oxetan-3-yl)thiophene-2-carboxamide] |  |  |  |  |  |  |  |  |  |  |  |  | remaining activity at 10 µM ([1]; 10 uM): 71.9%; remaining activity at 10 µM ([2]; 10 uM): 93.7%; remaining activity at 10 µM ([3]; 10 uM): 85.5%; remaining activity at 10 µM ([4]; 10 uM): 104%; remaining activity at 10 µM ([5]; 10 uM): 93.3%; remaining activity at 10 µM ([6]; 10 uM): 100%; remaining activity at 10 µM ([7]; 10 uM): 104%; remaining activity at 10 µM ([8]; 10 uM): 94.8%; remaining activity at 10 µM ([9]; 10 uM): 100%; remaining activity at 10 µM ([10]; 10 uM): 76.8%; remaining activity at 10 µM ([11]; 10 uM): 113%; remaining activity at 10 µM ([12]; 10 uM): 105%
3 | O=C(Nc1cnn(-c2csc(C(=O)NC3COC3)c2)c1)Nc1c(F)cccc1Cl [Compound 25, 4-(4-(3-(2-chloro-6-fluorophenyl)ureido)-1H-pyrazol-1-yl)-N-(oxetan-3-yl)thiophene-2-carboxamide] | 75.9 | 87.8 | 102 | 91 | 88.2 | 89.2 | 105 | 97.6 | 101 | 96.5 | 82.3 | 81.1 | 
